Measurements: US6503492B2, “Antiperspirant or deodorant compositions” (priority 2001, dated 2003)
Values joined by “and” are separate entries in the source; they are usually repeats but may differ in a detail not shown here. Equal entries are not always repeated.

Legend:
histamine-induced itch [1] = assay: Histamine-induced itch, test material topically applied in Aqueous Cream BP (histamine iontophoresis, VAS); settings: for Itch score (area under the curve): VAS area 0 to 5 min; for Itch score % of control: versus vehicle alone
histamine-induced itch [2] = assay: Histamine-induced itch, test material topically applied in ethanol:Vaseline Intensive Care Lotion; format: in vivo, human; settings: for Anti-pruritic action (in words): comparison N-acyl ethanolamides in ethanol:VICL lotion; for Itch score % of control: comparison N-acyl ethanolamides, 50 mM in ethanol, in ethanol:VICL lotion, versus vehicle alone of the same run
Procedure: This mixture was applied (250 μl/5 cm^2-5 times at 1 h intervals) and histamine iontophoresis was performed on the treated site in the method described in Example 2. The vehicle control was ethanol:VICL (volume ratio 1:1).
Related molecules stearylethanolamine (SEA; 50 mM in ethanol) and linoleoylethanolamine (LAMEA; 50 mM in ethanol) were tested as potential activating agents for a CBR, employing the test method described in Example 3 and applied in the ethanol:VICL lotion.

[3] = system: antiperspirant-induced irritation; assay: Antiperspirant-induced irritation in vivo, 47 h Finn chamber patch test, erythema grading; set-up: species or system human
Procedure: In this Example, patch tests were performed on a mixed panel of 49 volunteers with age ranges between 18 and 55, using a double-blind protocol with randomized patch sites. Samples (20 mg) were applied to a filter paper that was placed within a Finn chamber (0.8 cm internal diameter). The chambers were then attached to the volar forearm using Scanpore™ tape (Norgesplater, Nor.) and left for 47 h. At the end of the 47 h period, the patches were removed and the site was left open for 5 h when the erythema associated with the patch was visually assessed and scored using an in-house standard assessment Patch Grading Scale as set out below.

[4] = system: skin organotypic cultures (Epiderm™); assay: Skin organotypic culture: antiperspirant (APF1)-induced IL-6 release, ELISA; settings: for IL-6 pg/ml ± SD: APF1 topically, 24h
histamine-induced itch [5] = assay: Histamine-induced itch, test material applied under water-impermeable patch for 24 hours; settings: PEA 100 mM under patch
[6] = AEA 5% (w/v) in Aqueous Cream BP

`CCCCC/C=C\C/C=C\C/C=C\C/C=C\CCCC(=O)NCCO` [AEA, (all Z)-N-(2-Hydroxyethyl)-5,8,11,14-eicosatetraenamide] was tested. Which “Itch score (area under the curve)” value (histamine-induced itch [1]; [6]) did it give?
The value was 1322.

And the “Itch score % of control” value (histamine-induced itch [1]; [6])?
Its value is 76 % of control.

And the “Effect on histamine-induced itch (in words)” value (histamine-induced itch [1]; anandamide topically applied)?
Its value is “inhibitor of histamine-induced itch”.

`CCCCCCC(C)(C)c1cc(O)c2c(c1)OC(C)(C)[C@@H]1CC=C(CO)C[C@@H]21` [HU-210, (6aR)-trans-3-(1,1-Dimethylheptyl)-6a,7,10,10a-tetrahydro-1-hydroxy-6,6-dimethyl-6H-dibenzo[b,d]pyran-9-methanol] was tested. Which “Itch score % of control” value (histamine-induced itch [1]; HU-210 0.05% (w/v) in Aqueous Cream BP) did it give?
Its value is 7.3 % of control.

And the “Itch score (area under the curve)” value (histamine-induced itch [1]; HU-210 0.05% (w/v) in Aqueous Cream BP, volar forearm, after 4 hours)?
Its value is 101.

And the “Itch score % of control” value (histamine-induced itch [1]; HU-210 0.5% (w/v) in Aqueous Cream BP)?
The value was 6.2 % of control.

What about the “Itch score (area under the curve)” value (histamine-induced itch [1]; HU-210 0.5% (w/v) in Aqueous Cream BP, volar forearm, after 4 hours) of the same compound?
Its value is 119.

And the “Effect on histamine-induced itch (in words)” value (histamine-induced itch [1]; HU-210 topically applied in Aqueous Cream BP)?
The value was “capable of reducing histamine-induced itch”.

For `CCCCC/C=C\C/C=C\CCCCCCCC(=O)NCCO` [LAMEA, linoleoylethanolamine], which “Anti-pruritic action (in words)” value (histamine-induced itch [2]) is on record?
The value was “unable to demonstrate any anti-pruritic action or even appeared to exacerbate the itch response”.

And the “Itch score % of control” value (histamine-induced itch [2])?
Its value is 169 % of control and 108 % of control and 100 % of control.

Which results are given for `CCCCCCCCCCCCCCCC(=O)NCCO` [PEA, Palmitoylethanolamide]?
Effect on histamine-induced itch (in words) (histamine-induced itch [2]; PEA topically applied in the presence of a lotion): can inhibit histamine-induced itch; Irritation induced by APF1 (in words) ([3]; 0.25% palmitoylethanolamide in APF1, Wilcoxon signed rank test, significance level 5%): reduced significantly; Mean Irritation Score ([3]; APF1 with 0.25% PEA, 20 mg in Finn chamber 47 h, scored 5 h after removal, Patch Grading Scale 0-4, 49 volunteers): 0.54; IL-6 pg/ml ± SD ([4]; PEA 0.1 μM in the medium): 38.3 ± 7.6 pg/mL; IL-6 pg/ml ± SD ([4]; PEA 1.0 μM in the medium): 36.5 ± 11.6 pg/mL; IL-6 pg/ml ± SD ([4]; PEA 10.0 μM in the medium): 59.5 ± 13.8 pg/mL; IL-6 pg/ml ± SD ([4]; PEA 100.0 μM in the medium): 43.0 ± 7.9 pg/mL; IL-6 pg/ml ± SD ([4]; PEA 1000.0 μM in the medium): 63.0 ± 24.8 pg/mL; AP-induced IL-6 release (in words) ([4]; PEA at all concentrations used, Dunnet's test p<0.05): significantly decrease AP-induced IL-6 release; Effect on histamine-induced itch (in words) (histamine-induced itch [5]): can inhibit histamine-induced itch

How did the “Anti-pruritic action (in words)” value (histamine-induced itch [2]) turn out when `CCCCCCCCCCCCCCCCCC(=O)NCCO` [SEA, stearylethanolamine] was run?
The value was “unable to demonstrate any anti-pruritic action or even appeared to exacerbate the itch response”.

What about the “Itch score % of control” value (histamine-induced itch [2]) of the same compound?
The value was 231 % of control and 260 % of control and 190 % of control.
